# Assays:
# [1] = tested on: "Clear and Detox" module genes; assay: Eigengene analysis of "Clear and Detox" co-expression module; conditions: FIG. 8
# skin barrier formation = assay: Eigengene analysis of younger-appearance genes, skin barrier; type: cell-based; conditions: cultured human keratinocytes
# [2] = tested on: "Repair and Rebuild" associated genes; assay: Eigengene analysis of "Repair and Rebuild" co-expression module; conditions: 301 genes, FIG. 9
substance,measurement,setting,value
palmitoyl-lysine-threonine [Pal-KT],"effect on ""Clear and Detox"" eigengene",[1],significantly up-regulates
same,effects relating to successful aging in skin barrier formation,skin barrier formation,Effects relating to successful aging were also identified
palmitoyl-lysine-threonine-threonine-lysine-serine [Pal-KTTKS],"effect on ""Repair and Rebuild"" eigengene",[2],significantly up-regulate

# Reference: patent US20160074291A1, “ANTI-AGING SKIN CARE COMPOSITIONS AND REGIMENS” (The Procter & Gamble Company, priority 2014, published 2016)
